Test results taken from patent US20170157159A1, “COMBINATION TREATMENT OF ACUTE MYELOID LEUKEMIA AND MYELODYSPLASTIC SYNDROME I” (Boehringer Ingelheim International GmbH, priority 2013, published 2017).

Test system: human AML cell line MV4;11
Test: Nude mouse xenograft model derived from human AML cell line MV4;11: tumor growth
Format: in vivo
Details: 21 days, MV4;11 xenograft
Method: MV4;11 (CRL-9591) cells were obtained from ATCC. According to the Catalogue of Somatic Mutations in Cancer of the Wellcome Trust Sanger Institute, UK, this cell line carries a mutation in the FLT3 gene. Cells were cultured in T175 tissue culture flasks at 37° C. and 5% CO2. The medium used was IMDM supplemented with 10% fetal calf serum, 1% NEAA, 1% sodium pyruvate and 1% glutamine.
Mice were 8-9 week-old athymic female BomTac: NMRI-Foxn1^nu purchased from Taconic, Denmark. After arrival in the animal facility, mice were allowed to adjust to ambient conditions for at least 3 days before they were used for experiments. They were housed in Macrolon® type II cages in groups of 5 under standardized conditions at 21.5±1.5° C. temperature and 55±10% humidity. Standardized diet (PROVIMI KLIBA) and autoclaved tap water were provided ad libitum.
To establish subcutaneous tumors, MV4;11 cells were harvested and resuspended in PBS+5% FCS at 5×10^7 cells/ml. 50 μl of the cell suspension containing 2.5×10^6 cells was then injected subcutaneously into the right flank of the mice (1 site per mouse). Growth factor reduced BD Matrigel™ Matrix (BD Biosciences) was added to the cell suspension at a ratio of 1:1 before the injection.
Volasertib (BI 6727) was dissolved in hydrochloric acid (0.1 N), diluted with 0.9% NaCl and injected intravenously into the tail vein. An administration volume of 10 ml per kg body weight was used. The solution was freshly made up each injection day. Decitabine was dissolved in 0.9% NaCl and administered i.p. An administration volume of 10 ml per kg body weight was used.
The tumor diameter was measured three times a week with a caliper. The volume of each tumor [in mm^3] was calculated according to the formula “tumor volume=length*diameter^2*π/6”. To monitor side effects of treatment, mice were inspected daily for abnormalities and body weight was determined three times a week. […] In addition animals with tumor sizes exceeding 2000 mm^3 were sacrificed early during the studies for ethical reasons.
(§1) Animals were treated for 21 days.
as §1, §1

Compound	T/C (ratio of median tumor volume of treated vs. control tumors) (Volasertib alone 10 mg/kg i.v. once weekly) [%]	T/C (ratio of median tumor volume of treated vs. control tumors) (Volasertib alone 20 mg/kg i.v. once weekly) [%]	T/C (ratio of median tumor volume of treated vs. control tumors) (decitabine alone 1.25 mg/kg i.p. twice weekly on two consecutive days) [%]	T/C (ratio of median tumor volume of treated vs. control tumors) (decitabine alone 2.5 mg/kg i.p. twice weekly on two consecutive days) [%]
CC[C@@H]1C(=O)N(C)c2cnc(Nc3ccc(C(=O)N[C@H]4CC[C@H](N5CCN(CC6CC6)CC5)CC4)cc3OC)nc2N1C(C)C [Volasertib, N-[trans-4-[4-(cyclopropylmethyl)-1-piperazinyl]cyclohexyl]-4-[[(7R)-7-ethyl-5,6,7,8-tetrahydro-5-methyl-8-(1-methylethyl)-6-oxo-2-pteridinyl]amino]-3-methoxy-benzamide]	76	38	–	–
Nc1ncn([C@H]2C[C@H](O)[C@@H](CO)O2)c(=O)n1 [decitabine, Decitabine]	–	–	59	53
